Laboratory results published in the NIST ThermoML archive (doi:10.1016/j.jct.2017.05.028).

Assay: wn = mass fraction of the nth substance listed
Conditions: 101 kPa, Liquid, digital holographic interferometry

CCCCCO [pentan-1-ol] + CCCCCCC
binary diffusion coefficient [m2/s]
Conditions	w1 = 0.05	w1 = 0.15	w1 = 0.25	w1 = 0.35	w1 = 0.45	w1 = 0.55	w1 = 0.65	w1 = 0.75	w1 = 0.85	w1 = 0.95
288.15 K	1.65e-09	1.19e-09	8.88e-10	7.12e-10	5.95e-10	5.43e-10	5.49e-10	5.77e-10	6.09e-10	6.5e-10
298.15 K	1.88e-09	1.43e-09	1.13e-09	9.36e-10	8.38e-10	7.8e-10	7.86e-10	8.09e-10	8.4e-10	8.76e-10
308.15 K	2.11e-09	1.69e-09	1.38e-09	1.18e-09	1.07e-09	1.02e-09	9.99e-10	1.04e-09	1.07e-09	1.12e-09
318.15 K	2.42e-09	1.96e-09	1.64e-09	1.42e-09	1.33e-09	1.29e-09	1.28e-09	1.31e-09	1.36e-09	1.38e-09

CCCCO [butan-1-ol] + CCCCCCC
binary diffusion coefficient [m2/s]
Conditions	w1 = 0.05	w1 = 0.15	w1 = 0.25	w1 = 0.35	w1 = 0.45	w1 = 0.55	w1 = 0.65	w1 = 0.75	w1 = 0.85	w1 = 0.95
288.15 K	1.86e-09	1.39e-09	1.04e-09	8.03e-10	6.87e-10	6.25e-10	6.28e-10	6.75e-10	7.03e-10	7.54e-10
298.15 K	2.09e-09	1.63e-09	1.26e-09	1.06e-09	9.24e-10	8.84e-10	8.71e-10	9.06e-10	9.54e-10	1.01e-09
308.15 K	2.4e-09	1.92e-09	1.57e-09	1.33e-09	1.19e-09	1.13e-09	1.11e-09	1.13e-09	1.2e-09	1.26e-09
318.15 K	2.73e-09	2.24e-09	1.87e-09	1.6e-09	1.49e-09	1.42e-09	1.4e-09	1.44e-09	1.48e-09	1.54e-09
